In patent US11970731B2, “Enhancement of nucleic acid polymerization by aromatic compounds” (priority 2018, dated 2024):

Key:
[1] = tested on: DNA polymerase; assay: Screen of PEMs for enhancement of XNTP polymerization (primer extension, gel electrophoresis); format: biochemical; settings: for DNA polymerase-mediated primer extension with XNTPs (length of extension products): FIG. 4 gel, 45 mer template, without PEM additive up to only around 14 XNTPs
Experimental: A representative primer extension reaction may include the following reagents: 2 pmol primer, 2.2 pmol 45 mer oligonucleotide template, 50 pmol of each XNTP (XATP, XCTP, XGTP, and XTTP), 50 mM Tris HCl, pH 6.79, 200 mM NaCl, 20% PEG, 5% NMS, 0.5 nmol polyphosphate 60.19, 0.3 mM MnCl2, and 0.6 μg of purified recombinant DNA polymerase protein. Reactions may be run for 1 hr at 23° C. Reaction products (i.e., constrained Xpandomers) are treated to cleave the phosphoramidate bonds, thereby generating linearized Xpandomers. Reaction products may be analyzed using gel electrophoresis on 4-12% acrylamide gels to resolve and visualize Xpandomer products of different lengths. For the PEM screen described above, PEMs were typically tested in the micro to millimolar range.
Again, this PEM activity is specific for compound 2, as other unrelated aromatic compounds had no effect (lanes 2-7).

[2] = target: T1, C4552 DNA polymerase (Saccharolobus solfataricus, UniProt Q97W02, A155G/A42V/D156R/D292Y/D294N/E291S/E324K/E325K/E327K/E79L/G187P/G299W/I153V/I189F/I248T/I295S/K152A/K317Q/K321Q/K56Y/K78D/L293W/M76W/N188Y/P184Q/Q82W/Q83G/R300S/S297Y/S86E/T290K/T301W/V289W/V296Q); assay: Primer extension assays using three 100mer templates derived from HIV1, 2 and 3 genomes; format: biochemical, Sulfolobus solfataricus; settings: 0.5 mM PEM; HIV1, HIV2, HIV3 100mer templates; 30 minutes at 23° C.; FIG. 9
T1 construct: made in house
Experimental: PEM activity of compounds 9-11 was tested in primer extension assays using three 100mer templates, derived from the HIV1, 2, and 3 genomes. Primer extension reactions included the following reagents: 75 mM TrisCl, pH 8.44, 175 mM NH4OAc, 20% PEG8K, 5% NMS, 0.8 nmol PP-60.20, 0.6 mM MnCl2, 2.3 μg Tth single-strand binding protein (SSB), 0.5 M or 1 M urea, 200 pmol each XNTP, 1.1 pmol template, 1 pmol oligonucleotide primer, 1.2 μg purified recombinant C4552 DNA polymerase, and 0.5 mM PEM. 10 μL primer extension reactions were run for 30 minutes at 23° C. and reaction products were analyzed by gel electrophoresis.

[3] = target: T2, C4760 DNA polymerase (a variant of DPO4) (Saccharolobus solfataricus, UniProt Q97W02, A155G/A42V/D156R/D292Y/D294N/E291S/E324K/E325K/E327K/E63R/E79L/G187P/G299W/I153V/I189F/I248T/I295S/K152A/K317Q/K321Q/K56Y/K78D/L293W/M76W/N188Y/P184Q/Q82W/Q83G/R300S/S297Y/S86E/T290K/T301W/V289W/V296Q); assay: Primer extension assays using the HIV2 100 mer template; format: biochemical, Sulfolobus solfataricus
T2 construct: made in house
Experimental: PEM activity of compound 12 was tested in primer extension assays using the HIV2 100 mer template. Primer extension reactions included the following reagents: 50 mM TrisCl, 200 mM NH4OAc, 20% PEG8K, 5% NMS, 0.6 nmol PP-60.20, 0.6 mM MnCl2, 2.75 μg/μl Eco single-strand binding protein (SSB), 1 M urea, 50 pmol each XNTP, 1.1 pmol template, 1 pmol oligonucleotide primer, 1.2 μg/μl purified recombinant C4760 DNA polymerase (SEQ ID NO:2), and 0.5, 1, or 1.5 mM PEM. 10 μL primer extension reactions were run for 30 minutes at 23° C. and reaction products were analyzed by gel electrophoresis. […] Lanes 2-4 show primer extension products from reactions with a structurally related additive lacking robust PEM activity.
PEM activity of compounds 13 and 14 was tested in primer extension assays using the HIV2 100 mer template. Primer extension reactions included the following reagents: 50 mM TrisCl, 200 mM NH4OAc, 20% PEG8K, 5% NMS, 0.6 nmol PP-60.20, 0.6 mM MnCl2, 2.75 μg/μl Eco single-strand binding protein (SSB), 1 M urea, 50 pmol each XNTP, 1.1 pmol template, 1 pmol oligonucleotide primer, 1.2 μg/μl purified recombinant C4760 DNA polymerase (a variant of DPO4, see SEQ ID NO:2), and 0.5, 1, 1.52, or 2.5 mM PEM. 10 μL primer extension reactions were run for 30 minutes at 23° C. and reaction products were analyzed by gel electrophoresis. A representative gel showing primer extension products is presented in FIG. 11 (the position of the full length HIV2 100 mer is indicated by the arrow).
PEM activity of compounds 16, 17, and 18 and combinations thereof were tested in primer extension assays using the HIV2-derived 100mer template. Primer extension reactions included the following reagents: 50 mM TrisCl, 200 mM NH4OAc, 20% or 25% PEG8K, 5% NMS, 0.6 nmol PP-60.20, 0.6 mM MnCl2, 2 μg Kod single-strand binding protein (SSB), 1 M urea, 50 pmol each XNTP, 1 pmol template, 1 pmol oligonucleotide primer, 1.2 μg purified recombinant C4760 DNA polymerase (a variant of DPO4, see SEQ ID NO:2), and 0.5-2 mM PEM. 10 μL primer extension reactions were run for 30 minutes at 37° C. and reaction products were analyzed by gel electrophoresis. A representative gel showing primer extension products is presented in FIG. 13 (the position of a 100mer product is indicated by the arrow).

[4] = 2 mM compound 16, 0.5, 1, 2, and 3 mM compound 17, Kod SSB, 30 minutes at 37° C., FIG. 13, comparator compound 14 (lane 1)
[5] = 0.5, 1, 1.52, or 2.5 mM PEM, Eco SSB, 30 minutes at 23° C., FIG. 11, comparator compound 10 (lanes 1-4)

T2 sequence (Q97W02 other isoform, or with tags, fused parts or gaps with the stated changes): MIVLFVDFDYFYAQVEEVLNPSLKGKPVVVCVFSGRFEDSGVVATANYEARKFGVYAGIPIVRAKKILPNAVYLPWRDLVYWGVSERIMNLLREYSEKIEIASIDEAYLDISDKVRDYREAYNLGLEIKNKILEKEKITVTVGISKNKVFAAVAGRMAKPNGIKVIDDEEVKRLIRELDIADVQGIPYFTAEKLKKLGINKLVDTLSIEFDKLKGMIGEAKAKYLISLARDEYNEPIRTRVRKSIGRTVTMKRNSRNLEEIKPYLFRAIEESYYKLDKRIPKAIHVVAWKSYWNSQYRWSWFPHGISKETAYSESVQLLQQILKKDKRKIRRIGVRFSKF
T1 sequence (Q97W02 other isoform, or with tags, fused parts or gaps with the stated changes): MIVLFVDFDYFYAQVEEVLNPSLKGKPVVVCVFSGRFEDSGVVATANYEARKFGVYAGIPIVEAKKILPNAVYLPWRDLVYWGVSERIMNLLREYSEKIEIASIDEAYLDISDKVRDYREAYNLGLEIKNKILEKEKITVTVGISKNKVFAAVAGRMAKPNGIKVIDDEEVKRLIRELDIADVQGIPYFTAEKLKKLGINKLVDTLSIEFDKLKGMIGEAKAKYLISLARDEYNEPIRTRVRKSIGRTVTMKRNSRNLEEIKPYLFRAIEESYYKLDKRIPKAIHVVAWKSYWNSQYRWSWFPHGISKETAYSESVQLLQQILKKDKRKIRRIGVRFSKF

O=C(O)c1ccc(-n2cc(-c3cccc(-c4cn(-c5ccc(C(=O)O)c(O)c5)nn4)c3)nn2)cc1O [Compound 3, 4,4′-(1,3-phenylenebis(1H-1,2,3-triazole-4,1-diyl))bis(2-hydroxybenzoic acid)]
DNA polymerase-mediated primer extension with XNTPs (length of extension products) [1]: enables the polymerase to synthesize considerably longer extension products

COc1cc(-c2cn(-c3ccc(C(=O)O)c(O)c3)nn2)nc(-c2cn(-c3ccc(C(=O)O)c(O)c3)nn2)c1 [Compound 9, 4,4′-((4-methoxypyridine-2,6-diyl)bis(1H-1,2,3-triazole-4,1-diyl))bis(2-hydroxybenzoic acid)]
PEM activity: polymerization of XNTPs into Xpandomer copies of 100 mer templates [2]: enable XNTP polymerization at least as efficiently as compound 1

COC(=O)c1cc(-c2cn(-c3ccc(C(=O)O)c(O)c3)nn2)nc(-c2cn(-c3ccc(C(=O)O)c(O)c3)nn2)c1 [Compound 16, 4,4′-((4-(methoxycarbonyl)pyridine-2,6-diyl)bis(1H-1,2,3-triazole-4,1-diyl))bis(2-hydroxybenzoic acid)]
PEM activity: polymerization of XNTPs into Xpandomer copies of the 100 mer template [3, 4]: enable polymerization of XNTPs into lengthy Xpandomer copies of the 100 mer template in a manner comparable to that of compound 14

N#Cc1cc(-c2cn(-c3ccc(O)c(C(=O)O)c3)nn2)nc(-c2cn(-c3ccc(O)c(C(=O)O)c3)nn2)c1 [Compound 12, 5,5′-((4-cyanopyridine-2,6-diyl)bis(1H-1,2,3-triazole-4,1-diyl))bis(2-hydroxybenzoic acid)]
PEM activity: polymerization of XNTPs into Xpandomer copies of the 100 mer template ([3]; 0.5, 1, or 1.5 mM PEM, Eco SSB, 30 minutes at 23° C., FIG. 10, comparable to compound 10 (lane 1)): enables polymerization of XNTPs into full length Xpandomer copies of the 100 mer template

Cc1cc(-c2cn(-c3ccc(C(=O)O)c(O)c3)nn2)nc(-c2cn(-c3ccc(C(=O)O)c(O)c3)nn2)c1 [Compound 13, 4,4′-((4-methylpyridine-2,6-diyl)bis(1H-1,2,3-triazole-4,1-diyl))bis(2-hydroxybenzoic acid)]
PEM activity: polymerization of XNTPs into Xpandomer copies of the 100 mer template [3, 5]: enables polymerization of XNTPs into full length Xpandomer copies of the 100 mer template in a manner comparable to that of compound 10

O=C(O)c1ccc(-n2cc(-c3ccc4[nH]c5ccc(-c6cn(-c7ccc(C(=O)O)c(O)c7)nn6)cc5c4c3)nn2)cc1O [Compound 4, 4,4′-((9H-carbazole-3,6-diyl)bis(1H-1,2,3-triazole-4,1-diyl))bis(2-hydroxybenzoic acid)]
DNA polymerase-mediated primer extension with XNTPs (length of extension products) [1]: enables the polymerase to synthesize considerably longer extension products

O=C(O)c1ccc(-n2cc(-c3cncc(-c4cn(-c5ccc(C(=O)O)c(O)c5)nn4)c3)nn2)cc1O [Compound 2, 4,4′-(pyridine-3,5-diylbis(1H-1,2,3-triazole-4,1-diyl))bis(2-hydroxybenzoic acid)]
primer extension activity with XNTPs ([1]; FIG. 5 gel, compound at various concentrations (lanes 8-10), without PEM additive modest activity): significantly enhances primer extension activity

CCOC(=O)c1cc(-c2cn(-c3ccc(C(=O)O)c(O)c3)nn2)nc(-c2cn(-c3ccc(C(=O)O)c(O)c3)nn2)c1 [Compound 14, 4,4′-((4-(ethoxycarbonyl)pyridine-2,6-diyl)bis(1H-1,2,3-triazole-4,1-diyl))bis(2-hydroxybenzoic acid)]
PEM activity: polymerization of XNTPs into Xpandomer copies of the 100 mer template [3, 5]: enables polymerization of XNTPs into full length Xpandomer copies of the 100 mer template in a manner comparable to that of compound 10

CCNC(=O)c1cc(-c2cn(-c3ccc(C(=O)O)c(O)c3)nn2)nc(-c2cn(-c3ccc(C(=O)O)c(O)c3)nn2)c1 [Compound 17, 4,4′-((4-(ethylcarbamoyl)pyridine-2,6-diyl)bis(1H-1,2,3-triazole-4,1-diyl))bis(2-hydroxybenzoic acid)]
PEM activity: polymerization of XNTPs into Xpandomer copies of the 100 mer template [3, 4]: enable polymerization of XNTPs into lengthy Xpandomer copies of the 100 mer template in a manner comparable to that of compound 14

O=C(O)c1ccc(-n2cc(-c3cc([N+](=O)[O-])cc(-c4cn(-c5ccc(C(=O)O)c(O)c5)nn4)n3)nn2)cc1O [Compound 11, 4,4′-((4-nitropyridine-2,6-diyl)bis(1H-1,2,3-triazole-4,1-diyl))bis(2-hydroxybenzoic acid)]
PEM activity: polymerization of XNTPs into Xpandomer copies of 100 mer templates [2]: enable XNTP polymerization at least as efficiently as compound 1
